Laboratory results published in paper PMC8231945, “Ingol and Ingenol-Type Diterpenes from Euphorbia trigona Miller with Keratinocyte Inhibitory Activity” (Plants, 2021).
Like-named read-outs stand apart in the source and are kept apart here.

Test system: HPV-Ker cells
Assay: Viability test of HPV-Ker keratinocytes by real-time impedance monitoring (xCELLigence RTCA)
Assay type: cell-based, human
Conditions: for IC50: Homo sapiens, Keratinocyte; for keratinocyte inhibitory activity in vitro (overall verdict) / cytotoxic effect against keratinocytes: HPV-Ker; for keratinocyte inhibitory activity in vitro (overall verdict): compared to ingenol mebutate
Excerpt: The main risk factor of induction of AK is UV irradiation. The UVB component of sunlight damages DNA, which might cause mutations in p53 and other tumor suppressor genes. Therefore, as an in vitro model of AK, we used the HPV-Ker cell line which contains the E6 oncoprotein of the human papillomavirus, leading to the degradation of the p53 tumor suppressor [26].
Since our compounds, especially the ingenol-derivatives, are structurally very similar to ingenol mebutate (Figure 3), we were interested in whether they have any effect on the viability of keratinocytes. The HPV-Ker cell line was treated with the isolated ingol- and ingenol-type diterpenoids with a concentration range of 5 × 10^−9–5 × 10^−4 M, the viability was measured with the xCELLigence System RTCA HT (Agilent Technologies, Santa Clara, CA, USA) instrument for 72 h, and data at 24 and 48 h were used for calculations (Table 1). IC50 values were calculated based on the sigmoidal dose–response formula.
The immortalized human keratinocyte cell line (HPV-Ker) was cultured in Keratinocyte-SFM supplemented with 5 ng/mL of recombinant epidermal growth factor, […] of bovine pituitary extract, and antibiotic/antimycotic solution in a CO2 thermostat at 37 °C.
The effect of the extracts and the purified compounds on HPV-Ker cells was investigated by real-time monitoring with the xCELLigence System RTCA HT Instrument (ACEA Biosciences, San Diego, CA, USA). 8 × 10^3 HPV-Ker cells were seeded in 96-well E-plates and keratinocytes were allowed to attach to the bottom of the wells and grow for 24 h. Cells were then treated with the indicated extract or substance for another 72 h. Real-time measurements of impedance were monitored every 15 min, then data at 24 and 48 h were used for calculations. The half-maximal inhibitory concentration (IC50) values for the compounds were calculated and GraphPad Prism 9.0 was used to plot results. All experiments were performed in duplicate, in three independent repeats.

[1] = HPV-Ker cell line, 24 h of treatment, ± SD, read-out: IC50 Value 24 h
[2] = HPV-Ker cell line, 48 h of treatment, ± SD, read-out: IC50 Value 48 h
[3] = HPV-Ker cells, RTCA normalized CI * hours, 24 h, read-out: IC50 (24h), Figure 4
[4] = HPV-Ker cells, RTCA normalized CI * hours, 48 h, read-out: IC50 (48h), Figure 4

| SMILES | IC50 [1] | IC50 [2] | further results |
| --- | --- | --- | --- |
| C/C=C(/C)C(=O)O[C@@H]1C(C)=C[C@@H]2C(=O)C3(C=C(C)[C@H](O)[C@@]13O)[C@H](C)C[C@@H]1[C@H]2[C@]1(C)COC(C)=O [Compound 9, 17-acetoxy-20-deoxyingenol 5-angelate] | 14800 ± 3830 nM | 7930 ± 1710 nM |  |
| C/C=C(\C)C(=O)O[C@@H]1/C(C)=C/[C@@]23O[C@@]2(C[C@H](C)[C@@H]3OC(C)=O)C(=O)[C@H](C)[C@H](OC(C)=O)[C@@H]2[C@H]([C@@H]1OC)C2(C)C [Compound 2, 8-O-methyl-ingol 3,12-diacetate 7-tigliate] | 17300 ± 1650 nM | 14500 ± 3780 nM |  |
| C/C=C(/C)C(=O)O[C@H]1C(C)=CC23C(=O)[C@@H](C=C(COC(C)=O)[C@@H](O)[C@]12O)[C@H]1[C@@H](C[C@H]3C)[C@@]1(C)COC(C)=O [Compound 6, 17-acetoxyingenol 3-angelate 20-acetate] | 390 ± 90 nM | 320 ± 50 nM | keratinocyte inhibitory activity in vitro (overall verdict): strong keratinocyte inhibitory activity |
| C/C=C(/C)C(=O)O[C@H]1C(C)=CC23C(=O)[C@@H](C=C(C)[C@@H](O)[C@]12O)[C@H]1[C@@H](C[C@H]3C)[C@@]1(C)COC(C)=O [Compound 8, 17-acetoxy-20-deoxyingenol 3-angelate] | 4320 ± 920 nM |  |  |
| C/C=C(/C)C(=O)O[C@H]1C(C)=C[C@]23C(=O)[C@@H](C=C(CO)[C@@H](O)[C@]12O)[C@H]1[C@@H](C[C@H]3C)C1(C)C [Ingenol mebutate, reference compound] | 840 ± 10 nM | 960 ± 30 nM | cytotoxic effect against keratinocytes (0.5 µg/mL, 24 h): weaker, but still significant, cytotoxic effect; cytotoxic effect against keratinocytes (0.5 µg/mL, 48 h): comparable to the treatment when 5 µg/mL was used for 48 h; cytotoxic effect against keratinocytes (5 µg/mL, 24 h): strongest cytotoxic effect; cytotoxic effect against keratinocytes (5 µg/mL, 48 h): lower cytotoxicity; IC50 [3]: 844 nM; IC50 [4]: 959 nM |
| CO[C@H]1[C@H]2[C@@H]([C@@H](OC(C)=O)[C@@H](C)C(=O)[C@@]34C[C@H](C)[C@H](OC(C)=O)[C@]3(/C=C(\C)[C@H]1OC(=O)c1ccccc1)O4)C2(C)C [Compound 3, 8-O-methyl-ingol 3,12-diacetate 7-benzoate] |  |  | IC50 Value 24 h (HPV-Ker cell line, 24 h of treatment, ± SD): inactive; IC50 Value 48 h (HPV-Ker cell line, 48 h of treatment, ± SD): inactive |
| C/C=C(\C)C(=O)O[C@@H]1/C(C)=C/[C@@]23O[C@@]2(C[C@H](C)[C@@H]3OC(C)=O)C(=O)[C@H](C)[C@H](OC(C)=O)[C@@H]2[C@H]([C@@H]1O)C2(C)C [Compound 1, Ingol 3,12-diacetate 7-tigliate] | 14200 ± 2850 nM | 1720 ± 140 nM |  |
| C/C=C(/C)C(=O)O[C@H]1C(C)=CC23C(=O)[C@@H](C=C(COC(C)=O)[C@@H](OC(C)=O)[C@]12O)[C@H]1[C@@H](C[C@H]3C)[C@@]1(C)COC(C)=O [Compound 7, 17-acetoxyingenol 3 angelate 5,20-diacetate] | 320 ± 20 nM | 870 ± 70 nM | keratinocyte inhibitory activity in vitro (overall verdict): strong keratinocyte inhibitory activity; IC50 [3]: 323 nM; IC50 [4]: 873 nM |
